# From patent US6359196B1, “Germination-specific plant promoters” (priority 1999, dated 2002)
# How the values were obtained:
# [1] = tested on: barley cystatin-1 gene promoter; test: Transient expression in barley aleurone protoplasts, cys1 promoter deletion constructs fused to β-glucuronidase, normalised to luciferase; type: cell-based; details: 1 μM phytohormone, 40-hour incubation at 20° C.; β-glucuronidase activity divided by luciferase activity
# Protocol: Barley aleurone protoplasts were prepared as described in Example 4, and separate protoplast aliquots were co-transfected with plasmid pAHC18 carrying the luciferase gene under control of the gene promoter derived from a constitutively expressed maize ubitiquitin gene (Bruce et al., 1989, Proc. Natl. Acad. Sci. USA 86:9692-9696), and one of the eight expression plasmids containing 5' deletions of the cystatin-1 gene promoter, as described above. The molar concentration of pAHC 18 was half of that of the reporter plasmid directing expression of β-glucuronidase. Incubation of the protoplasts with 1 μM gibberellic acid or 1 μM abscisic acid were performed in order to analyse possible, regulative effects of the phytohormones on […] gene expression, and identify the location of possible hormone responsive cis-acting gene elements. After a 40-hour incubation at 20° C., the protoplasts were harvested and the level of β-glucuronidase and luciferase activities determined as described by Leah et al. (1994, supra). The relative β-glucuronidase activity in individual samples was calculated by dividing the measured activity by the measured luciferace activity, thereby allowing differences in transformation efficiency to be corrected for.
# [2] = tested on: barley α-glucosidase gene promoter; test: Transient expression in barley aleurone protoplasts, constructs with the α-glucosidase gene promoter; type: cell-based; details: protoplasts incubated in the presence of gibberellic acid, 25° C., 40 hours
# Excerpt: It is possible to evaluate the expression levels directed by the barley α-glucosidase gene promoter by several methods. One such method is by transient expression assays performed with protoplasts prepared from aleurone layers of the barley cultivar Himalaya. This approach is not only used to evaluate the ability of different promoters to function in barley endosperm-derived tissues, including the aleurone tissue, but also to determine whether an expressed protein is secreted from the plant cell or whether the protein remains in the cell cytoplasm.
# Protoplasts are transfected with a gene cassette of interest and incubated to allow the introduced gene to be expressed, and the corresponding protein allowed to accumulate in the cell or in the surrounding liquid medium. Following incubation at 25° C. for 40 hours in the presence or absence of gibberellic acid, the cells and the growth medium are assayed for the presence of the protein encoded by the transgene in order to determine the efficiency of the promoter which drives transgene expression.
# A protocol for the preparation and transfection of barley aleurone protoplasts has been published by Skriver et al., (1991, supra). […]
activity derived from heterologously expressed enzymes [2],Compound,relative expression of β-glucuronidase [1]
,CC1=CC(=O)CC(C)(C)[C@@]1(O)/C=C/C(C)=C\C(=O)O [abscisic acid],increased
enhanced levels of activity,C=C1C[C@]23C[C@@]1(O)CC[C@H]2[C@@]12C=C[C@H](O)[C@@](C)(C(=O)O1)[C@H]2[C@@H]3C(=O)O [gibberellic acid],slight depression
